Results taken from US10392347B2, “2,4-dihydroxy-nicotinamides as APJ agonists” (BRISTOL-MYERS SQUIBB COMPANY, priority 2015, dated 2019).

Each molecule was assayed against T1, human APJ receptor (Homo sapiens, UniProt P35414) (assay: Intracellular cAMP accumulation assay (APJ hcAMP, HTRF)). Settings: Table 4; HEK293 cells stably expressing human APJ, forskolin-stimulated cAMP; read-out: Human cAMP EC50.
T1 construct: expressed in transfected cells
T1 sequence (P35414 1-380): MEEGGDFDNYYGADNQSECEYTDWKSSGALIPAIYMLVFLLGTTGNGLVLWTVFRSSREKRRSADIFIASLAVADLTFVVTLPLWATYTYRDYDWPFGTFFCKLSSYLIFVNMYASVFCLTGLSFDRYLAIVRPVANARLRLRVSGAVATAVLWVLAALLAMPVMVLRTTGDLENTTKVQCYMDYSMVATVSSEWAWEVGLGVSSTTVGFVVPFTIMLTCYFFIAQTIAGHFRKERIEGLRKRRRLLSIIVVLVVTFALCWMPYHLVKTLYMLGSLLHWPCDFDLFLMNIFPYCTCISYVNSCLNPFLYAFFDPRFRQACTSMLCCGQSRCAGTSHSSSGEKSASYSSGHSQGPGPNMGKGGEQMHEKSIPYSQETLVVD
Type: cell-based
Summary of the method: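 Inhibition of forskolin (2 μM)-stimulated cAMP, with […], was measured after 30 min compound exposure at room temperature in stably transfected HEK293 cells. HTRF ratios were converted to cAMP via standard curve, and EC50 values came from variable-slope sigmoidal concentration-response fitting.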
CCCCc1nc(O)c(C(=O)N2CCN(C(=O)c3cccc(Cl)c3Cl)CC2)c(O)c1-c1c(OC)cccc1OC [Example 153, 6-butyl-3-[4-(2,3-dichlorobenzoyl)piperazine-1-carbonyl]-5-(2,6-dimethoxyphenyl)pyridine-2,4-diol] showed an EC50 of 0.01 to 10 nM.
For CCCCc1nc(O)c(C(=O)N2CCN(Cc3cccc(F)c3F)CC2)c(O)c1-c1cccc(OC)c1OC [Example 154, 6-butyl-3-{4-[(2,3-difluorophenyl)methyl]piperazine-1-carbonyl}-5-(2,3-dimethoxyphenyl)pyridine-2,4-diol], the EC50 was 0.01 to 10 nM.

Same assay, conditions: Table 5; HEK293 cells stably expressing human APJ, forskolin-stimulated cAMP; read-out: Human cAMP EC50
With COc1cccc(-c2c(-c3csc(C)n3)nc(O)c(C(=O)N3CCC(c4ncc(F)cc4F)C3)c2O)c1 (centres unmarked) [Example 129, 3-[3-(3,5-difluoropyridin-2-yl)pyrrolidine-1-carbonyl]-5-(3-methoxyphenyl)-6-(2-methyl-1,3-thiazol-4-yl)pyridine-2,4-diol] the EC50 was 0.01 to 10 nM.

Same assay, conditions: Table 6; HEK293 cells stably expressing human APJ, forskolin-stimulated cAMP; read-out: Human cAMP EC50
With CCOCc1nc(O)c(C(=O)N2CCC(c3ccc(F)cc3F)C2)c(O)c1-c1c(OC)cccc1OC (centres unmarked) [Example 131] the EC50 was 0.01 to 10 nM.
CCOCc1nc(O)c(C(=O)N2CCC(c3ccc(F)cc3F)C2)c(O)c1-c1c(OC)cccc1OC (centres unmarked) [Example 132, 3-[3-(2,4-difluorophenyl)pyrrolidine-1-carbonyl]-5-(2,6-dimethoxyphenyl)-6-(ethoxymethyl)-4-hydroxy-1,2-dihydropyridin-2-one] was tested, and the EC50 was 0.01 to 10 nM.
CCOCc1nc(O)c(C(=O)N2CCC(c3c(F)cccc3F)C2)c(O)c1-c1c(OC)cccc1OC (centres unmarked) [Example 133, 3-[3-(2,6-difluorophenyl)pyrrolidine-1-carbonyl]-5-(2,6-dimethoxyphenyl)-6-(ethoxymethyl)-4-hydroxy-1,2-dihydropyridin-2-one] gave an EC50 of 0.01 to 10 nM.
Work on CCOCc1nc(O)c(C(=O)N2CCC(c3c(F)cccc3F)C2)c(O)c1-c1c(OC)cccc1OC (centres unmarked) [Example 134, 3-[3-(2,6-difluorophenyl)pyrrolidine-1-carbonyl]-5-(2,6-dimethoxyphenyl)-6-(ethoxymethyl)-4-hydroxy-1,2-dihydropyridin-2-one] yielded an EC50 of 0.01 to 10 nM.
CCCCc1nc(O)c(C(=O)N2CC[C@H](OCc3ccccc3)C2)c(O)c1-c1c(OC)cccc1OC [Example 136, 3-[(3S)-3-(benzyloxy)pyrrolidine-1-carbonyl]-6-butyl-5-(2,6-dimethoxyphenyl)pyridine-2,4-diol] was tested, and the EC50 was 0.01 to 10 nM.
CCOCc1nc(O)c(C(=O)N2CC[C@H](OCc3ccccc3)C2)c(O)c1-c1c(OC)cccc1OC [Example 137, 3-[(3S)-3-(benzyloxy)pyrrolidine-1-carbonyl]-5-(2,6-dimethoxyphenyl)-6-(ethoxymethyl)pyridine-2,4-diol] showed an EC50 of 10 to 100 nM.

Same assay, conditions: Table 7; HEK293 cells stably expressing human APJ, forskolin-stimulated cAMP; read-out: Human cAMP EC50
CCCCc1nc(O)c(C(=O)N2CCN(Cc3cccc(F)c3F)CC2)c(O)c1-c1cccc(CC#N)c1 [Example 139, 2-[3-(2-butyl-5-{4-[(2,3-difluorophenyl)methyl]piperazine-1-carbonyl}-4,6-dihydroxypyridin-3-yl)phenyl]acetonitrile] gave an EC50 of 0.01 to 10 nM.
Work on CCCCc1nc(O)c(C(=O)N2CCC(c3ncc(F)cc3F)C2)c(O)c1-c1cccc(C(C)C)c1 (centres unmarked) [Example 140, 6-butyl-3-[3-(3,5-difluoropyridin-2-yl)pyrrolidine-1-carbonyl]-5-[3-(propan-2-yl)phenyl]pyridine-2,4-diol] yielded an EC50 of 0.01 to 10 nM.
In the case of CCCCc1nc(O)c(C(=O)N2CCC(c3ncc(F)cc3F)C2)c(O)c1-c1cccc(C(C)C)c1 (centres unmarked) [Example 141, 6-butyl-3-[3-(3,5-difluoropyridin-2-yl)pyrrolidine-1-carbonyl]-5-[3-(propan-2-yl)phenyl]pyridine-2,4-diol], the EC50 is reported as 0.01 to 10 nM.
In the case of CCCCc1nc(O)c(C(=O)N2CCC(c3ncc(F)cc3F)C2)c(O)c1-c1cccc(OC)c1 (centres unmarked) [Example 142, 6-butyl-3-[3-(3,5-difluoropyridin-2-yl)pyrrolidine-1-carbonyl]-5-(3-methoxyphenyl)pyridine-2,4-diol], the EC50 is reported as 0.01 to 10 nM.
Work on CCCCc1nc(O)c(C(=O)N2CCC(c3ncc(F)cc3F)C2)c(O)c1-c1cccc(OC)c1 (centres unmarked) [Example 143, 6-butyl-3-[3-(3,5-difluoropyridin-2-yl)pyrrolidine-1-carbonyl]-5-(3-methoxyphenyl)pyridine-2,4-diol] yielded an EC50 of 0.01 to 10 nM.
Molecule CCCCc1nc(O)c(C(=O)N2CCC(c3ncc(F)cc3F)C2)c(O)c1-c1cccc(CO)c1 (centres unmarked) [Example 144, 6-butyl-3-[3-(3,5-difluoropyridin-2-yl)pyrrolidine-1-carbonyl]-5-[3-(hydroxymethyl)phenyl]pyridine-2,4-diol] has an EC50 of 0.01 to 10 nM.
In the case of CCCCc1nc(O)c(C(=O)N2CCC(c3ncc(F)cc3F)C2)c(O)c1-c1cccc(C(=O)NC(C)C)c1 (centres unmarked) [Example 145, 3-{2-butyl-5-[3-(3,5-difluoropyridin-2-yl)pyrrolidine-1-carbonyl]-4,6-dihydroxypyridin-3-yl}-N-(propan-2-yl)benzamide], the EC50 is reported as 0.01 to 10 nM.
CCCCc1nc(O)c(C(=O)N2CCC(c3ncc(F)cc3F)C2)c(O)c1-c1cccc(C(=O)NC(C)C)c1 (centres unmarked) [Example 146, 3-{2-butyl-5-[3-(3,5-difluoropyridin-2-yl)pyrrolidine-1-carbonyl]-4,6-dihydroxypyridin-3-yl}-N-(propan-2-yl)benzamide] was tested, and the EC50 was 0.01 to 10 nM.
CCCCc1nc(O)c(C(=O)N2CCC(c3ncc(F)cc3F)C2)c(O)c1-c1cccc(CO)c1 (centres unmarked) [Example 147, 6-butyl-3-[3-(3,5-difluoropyridin-2-yl)pyrrolidine-1-carbonyl]-5-[3-(hydroxymethyl)phenyl]pyridine-2,4-diol] gave an EC50 of 0.01 to 10 nM.

Same assay, conditions: Table 8; HEK293 cells stably expressing human APJ, forskolin-stimulated cAMP; read-out: Human cAMP EC50
With CCNCc1nc(O)c(C(=O)N2CCC(c3ccccc3F)C2)c(O)c1-c1c(OC)cccc1OC (centres unmarked) [Example 150, 5-(2,6-dimethoxyphenyl)-6-[(ethylamino)methyl]-3-[3-(2-fluorophenyl)pyrrolidine-1-carbonyl]pyridine-2,4-diol] the EC50 was 10 to 100 nM.
CCNCc1nc(O)c(C(=O)N2CCC(c3ccccc3F)C2)c(O)c1-c1c(OC)cccc1OC (centres unmarked) [Example 151, 5-(2,6-dimethoxyphenyl)-6-[(ethylamino)methyl]-3-[3-(2-fluorophenyl)pyrrolidine-1-carbonyl]pyridine-2,4-diol] gave an EC50 of 10 to 100 nM.
